Data from US10278942B2 (PELOTON THERAPEUTICS, INC., priority 2015, dated 2019).
pIC50: −log10 of the molar value. Read-outs that look alike come from different tables or passages of the source.

What was measured:
[1] = target: T1, HIF-2α HIS TAG-PASB Domain (Homo sapiens, UniProt Q99814); test: HIF-2α Scintillation Proximity Assay (SPA); format: binding; details: read-out: Scintillation Proximity Assay IC50
T1 construct: 100 nM HIF-2α HIS TAG-PASB Domain
Summary of the method: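 IC50 values rest on percent inhibition, where the sample signal is scaled between high and low controls. Wells contain about 100 μL: compound dispensed as 2 μL of DMSO solution, 88 μL protein-probe mix and 10 μL of beads.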

[2] = tested on: 786-O-Hif-Luc cells; test: Luciferase Assay (HIF responsive elements reporter)
Method: A pool of infected cells were then selected against 2 μg/mL of puromycin (P8833, Sigma) for 10 days followed by limited dilution to select single clones. […] Each concentration was tested in triplicate. After about 24 hours, luciferase activity was determined using ONE-Glo Luciferase Assay Reagent (E6110, Promega) following the manufacturer's recommended procedure. EC50 were calculated using Dotmatics software.

[3] = read-out: Mean Luciferase EC50 (nM), 786-O-Hif-Luc cells
[4] = read-out: Mean Luciferase EC50 (nM)

T1 sequence (Q99814 240-350 limits assumed): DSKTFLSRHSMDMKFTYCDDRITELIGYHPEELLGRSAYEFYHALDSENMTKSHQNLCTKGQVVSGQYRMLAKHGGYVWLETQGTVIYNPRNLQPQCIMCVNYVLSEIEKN

SMILES | pIC50 [1] | EC50 [2, 3] [nM] | EC50 [2, 4] [nM]
O=S(=O)(c1ccc(Oc2cncc(Cl)c2)c2c1[C@H](O)CC2)C(F)F [Compound 3] | 6.00 to 6.60 | 250 to 1000 | –
O=S(=O)(c1ccc(Oc2cncc(F)c2)c2c1[C@H](O)CC2)C(F)F [Compound 5] | 6.00 to 6.60 | 250 to 1000 | –
COc1cc(F)cc(Oc2ccc(S(=O)(=O)C(F)F)c3c2CC[C@H]3O)c1 [Compound 6] | > 7.30 | 50 to 249 | –
C[C@H]1C[C@@H](O)c2c(S(=O)(=O)C(F)F)ccc(Oc3cc(F)cc(Cl)c3)c21 [Compound 7a] | – | – | 250 to 1000
N#Cc1cc(F)cc(Oc2ccc(S(=O)(=O)C(F)F)c3c2CC(F)(F)C3O)c1 (centres unmarked) [Compound 11] | – | < 50 | –
N#Cc1cc(F)cc(Oc2ccc(S(=O)(=O)C(F)F)c3c2CC(F)(F)[C@H]3O)c1 [Compound 15, 3-[(1S)-7-(difluoromethylsulfonyl)-2,2-difluoro-1-hydroxy-indan-4-yl]oxy-5-fluoro-benzonitrile] | – | < 50 | –
O=C1CCc2c(Oc3cc(F)cc(Cl)c3)ccc(S(=O)(=O)C(F)F)c21 [Compound 18] | 6.60 to 7.30 | > 1000 | –
O=S(=O)(c1ccc(Oc2cc(F)cc(F)c2)c2c1CCC2)C(F)F [Compound 20] | < 6.00 | > 1000 | –
O=S(=O)(c1ccc(Oc2cc(F)cc(F)c2)c2c1C=CC2)C(F)F [Compound 21] | 6.60 to 7.30 | > 1000 | –
O=S(=O)(c1ccc(Oc2cc(F)cc(F)c2)c2c1CC(O)C2)C(F)F (centres unmarked) [Compound 22] | 6.00 to 6.60 | > 1000 | –
O=S(=O)(c1ccc(Oc2cncc(Cl)c2)c2c1[C@H](O)C(F)(F)C2)C(F)F [Compound 25] | – | < 50 | –
O=S(=O)(c1ccc(Oc2ccc(F)c(Cl)c2)c2c1[C@H](O)C(F)(F)C2)C(F)F [Compound 26] | > 7.30 | 50 to 249 | –
N#Cc1cncc(Oc2ccc(S(=O)(=O)C(F)F)c3c2CC(F)(F)[C@H]3O)c1 [Compound 27] | 6.00 to 6.60 | 50 to 249 | –
Cc1c(S(=O)(=O)C(F)F)ccc(Oc2cc(F)cc(Cl)c2)c1C#N [Compound 32] | > 7.30 | > 1000 | –
Cc1c(S(=O)(=O)C(F)F)ccc(Oc2cc(F)cc(C#N)c2)c1C#N [Compound 33] | 6.60 to 7.30 | > 1000 | –
N#Cc1c(Oc2cc(F)cc(Cl)c2)ccc(S(=O)(=O)C(F)F)c1CO [Compound 35] | < 6.00 | > 1000 | –
N#Cc1c(S(=O)(=O)C(F)F)ccc(Oc2cc(F)cc(Cl)c2)c1Cl [Compound 38] | 6.60 to 7.30 | 250 to 1000 | –
N#Cc1cc(F)cc(Oc2ccc(S(=O)(=O)C(F)F)c(C#N)c2Cl)c1 [Compound 39] | 6.60 to 7.30 | 250 to 1000 | –
N#Cc1cccc(Oc2ccc(S(=O)(=O)C(F)F)c(C#N)c2Cl)c1 [Compound 40] | 6.00 to 6.60 | > 1000 | –
N#Cc1cc(F)cc(Oc2ccc(S(=O)(=O)C(F)F)c(CO)c2Cl)c1 [Compound 42] | – | 250 to 1000 | –
N#Cc1cccc(Oc2ccc(S(=O)(=O)C(F)F)c(CO)c2Cl)c1 [Compound 43] | – | 250 to 1000 | –
O=S(=O)(c1ccc(Oc2cc(F)cc(Cl)c2)c(Cl)c1CCl)C(F)F [Compound 46] | 6.00 to 6.60 | > 1000 | –
Cc1c(S(C)(=O)=O)ccc(Oc2cc(F)cc(Cl)c2)c1C#N [Compound 50] | – | > 1000 | –
Cc1c(S(C)(=O)=O)ccc(Oc2cc(F)cc(F)c2)c1C#N [Compound 52] | > 7.30 | 250 to 1000 | –

SMILES | pIC50 [1] | EC50 [2, 3] [nM] | EC50 [2, 4] [nM]
Cc1c(S(C)(=O)=O)ccc(Oc2cc(F)cc(Cl)c2)c1C(F)F [Compound 53] | 6.00 to 6.60 | > 1000 | –
CS(=O)(=O)c1ccc(Oc2cc(F)cc(Cl)c2)c(C(F)F)c1CO [Compound 54] | – | 250 to 1000 | –
N#Cc1cc(F)cc(Oc2ccc(S(=O)(=O)C(F)(F)F)c3c2CC[C@H]3O)c1 [Compound 57] | – | – | 50 to 249
O=S(=O)(CF)c1ccc(Oc2cc(F)cc(Cl)c2)c2c1[C@H](O)CC2 [Compound 61] | – | 50 to 249 | –
N#Cc1cccc(Oc2ccc(S(=O)(=O)C(F)F)c3c2CC[C@H]3O)c1 [Compound 156] | – | – | 250 to 1000
CS(=O)(=O)c1ccc(Oc2cc(F)cc(C#N)c2)c2c1[C@H](O)C(F)(F)C2 [Compound 163, (S)-3-((2,2-Difluoro-1-hydroxy-7-(methylsulfonyl)-2,3-dihydro-1H-inden-4-yl)oxy)-5-fluorobenzonitrile] | – | – | < 50
CS(=O)(=O)c1ccc(Oc2cc(F)cc(C#N)c2)c2c1[C@H](N)C(F)(F)C2 [Compound 165] | – | – | 50 to 249
N#Cc1cc(Cl)cc(Oc2ccc(S(=O)(=O)CF)c3c2CC(F)(F)[C@H]3O)c1 [Compound 167] | – | – | < 50
CCS(=O)(=O)c1ccc(Oc2cc(F)cc(C#N)c2)c2c1[C@H](O)C(F)(F)C2 [Compound 206] | – | – | 50 to 249
N#Cc1cc(F)cc(Oc2ccc(S(=O)(=O)CCl)c3c2CC(F)(F)[C@H]3O)c1 [Compound 215] | – | < 50 | –
CS(=O)(=O)c1ccc(Oc2cc(F)cc(C#N)c2)c2c1C(O)CC2 (centres unmarked) [Compound 222] | – | > 1000 | –
CS(=O)(=O)c1ccc(Oc2cc(F)cc(C#N)c2)c2c1C(O)C(F)(F)C2 (centres unmarked) [Compound 223] | – | – | 50 to 249
Cn1cc(Oc2ccc(S(=O)(=O)C(F)(F)F)c3c2CC(F)(F)[C@H]3O)cn1 [Compound 224] | – | 50 to 249 | –
CS(=O)(=O)c1ccc(Oc2cc(F)cc(C#N)c2)c2c1[C@@H](O)C(F)(F)C2 [Compound 226] | – | – | > 1000
[2H]C([2H])([2H])S(=O)(=O)c1ccc(Oc2cc(F)cc(C#N)c2)c2c1[C@]([2H])(O)C(F)(F)C2 [Compound 229] | – | – | < 50
CS(=O)(=O)c1ccc(Oc2cc(F)cc(C#N)c2)c2c1[C@H](O)[C@H](F)C2 [Compound 231] | – | – | < 50
CS(=O)(=O)c1ccc(Oc2cc(F)cc(C#N)c2)c2c1C(O)C(F)C2 (centres unmarked) [Compound 232] | – | – | < 50
N#Cc1cncc(Oc2ccc(S(=O)(=O)C(F)(F)F)c3c2CC(F)(F)[C@H]3O)c1 [Compound 235] | – | – | < 50
N#Cc1cc(F)cc(Oc2ccc(S(=O)(=O)C(F)F)c3c2CC(F)(F)[C@@H]3O)c1 [Compound 237] | – | 50 to 249 | –
O=S(=O)(c1ccc(Oc2ccc(F)c3[nH]ncc23)c2c1C(O)C(F)(F)C2)C(F)(F)F (centres unmarked) [Compound 241] | – | 50 to 249 | –
[2H][C@]1(O)c2c(S(C)(=O)=O)ccc(Oc3cc(F)cc(C#N)c3)c2CC1(F)F [Compound 247] | – | – | < 50
CNS(=O)(=O)c1ccc(Oc2cc(F)cc(F)c2)c2c1[C@H](O)C(F)(F)C2 [Compound 251] | – | – | 50 to 249
N#Cc1cc(F)cc(Oc2ccc(S(N)(=O)=O)c3c2CC(F)(F)[C@H]3O)c1 [Compound 252] | – | – | 50 to 249
CNS(=O)(=O)c1ccc(Oc2cc(F)cc(C#N)c2)c2c1[C@H](O)C(F)(F)C2 [Compound 254] | – | – | 50 to 249

SMILES | pIC50 [1] | EC50 [2, 3] [nM] | EC50 [2, 4] [nM]
O=[N+]([O-])c1ccc(Oc2cc(F)cc(Cl)c2)c2c1C(O)CC2 (centres unmarked) [Compound 255] | – | > 1000 | –
NS(=O)(=O)c1ccc(Oc2cc(F)cc(F)c2)c2c1[C@H](O)C(F)(F)C2 [Compound 256] | – | – | < 50
O=S(=O)(c1ccc(Oc2ccc(F)c3[nH]ncc23)c2c1[C@H](O)C(F)(F)C2)C(F)(F)F [Compound 266] | – | < 50 | –
CS(=O)(=O)c1ccc(Oc2cc(F)cc(C#N)c2)c2c1[C@H](O)[C@@H](F)C2 [Compound 271] | – | – | 250 to 1000
CS(=O)(=O)c1ccc(Oc2cc(F)cc(C#N)c2)c2c1[C@H](O)CC2 [Compound 287] | – | 250 to 1000 | –
CS(=O)(=O)c1ccc(Oc2cc(F)cc(C#N)c2)c2c1[C@H](O)[C@H](F)[C@@H]2F [Compound 289, 3-[(1S,2S,3R)-2,3-difluoro-1-hydroxy-7-methylsulfonyl-indan-4-yl]oxy-5-fluoro-benzonitrile] | – | – | < 50
N#Cc1cc(F)cc(Oc2ccc(S(=O)(=O)C(F)(F)F)c3c2CC(F)(F)[C@H]3N)c1 [Compound 290] | – | – | 50 to 249
CS(=O)(=O)c1ccc(Oc2cc(F)cc(C#N)c2)c2c1[C@H](O)[C@H](F)[C@H]2F [Compound 294] | – | 250 to 1000 | –
N#Cc1cc(F)cc(Oc2ccc(S(N)(=O)=O)c3c2[C@@H](F)[C@@H](F)[C@H]3O)c1 [Compound 336] | – | 50 to 249 | –
N#Cc1cc(F)cc(Oc2ccc(S(N)(=O)=O)c3c2[C@@H](F)C(F)(F)[C@H]3O)c1 [Compound 338] | – | – | < 50
N#Cc1cc(F)cc(Oc2ccc(S(N)(=O)=O)c3c2[C@H](F)C(F)(F)[C@H]3O)c1 [Compound 339] | – | – | 250 to 1000
O=S1(=O)c2ccc(Oc3cc(F)cc(F)c3)c(C(F)F)c2C(O)C1F (centres unmarked) [Compound 369] | – | 50 to 249 | –
N#CC1(COc2ccc3c(c2C(F)F)C(O)C(F)(F)S3(=O)=O)CC1 (centres unmarked) [Compound 455] | – | > 1000 | –
CC(C)Oc1ccc2c(c1C#N)C(C)(O)C(F)(F)S2(=O)=O (centres unmarked) [Compound 456] | – | > 1000 | –
N[C@@H]1c2c(ccc(Oc3cc(F)cc(Br)c3)c2Br)S(=O)(=O)C1(F)F [Compound 462] | – | 250 to 1000 | –
CC1(C#N)CC(Oc2ccc(S(C)(=O)=O)c3c2[C@@H](F)C(F)(F)[C@H]3O)C1 (some centres unmarked) [Compound 766] | – | 250 to 1000 | –
COc1ccc(S(C)(=O)=O)c2c1CCC2O (centres unmarked) [Compound 776] | < 6.00 | – | –
COc1ccc(S(C)(=O)=O)c2c1CC(F)(F)[C@H]2O [Compound 777] | < 6.00 | – | –
CC1(Oc2ccc(S(=O)(=O)C(F)(F)F)c3c2CC(F)(F)[C@H]3O)COC1 [Compound 785] | < 6.00 | – | –
CC(C)(C)OC(=O)N1CC(Oc2ccc(S(=O)(=O)C(F)(F)F)c3c2CC(F)(F)[C@H]3O)C1 [Compound 791] | < 6.00 | – | –
O=S(=O)(c1ccc(OC2CNC2)c2c1[C@H](O)C(F)(F)C2)C(F)(F)F [Compound 792] | < 6.00 | – | –
CS(=O)(=O)N1CC(Oc2ccc(S(=O)(=O)C(F)(F)F)c3c2CC(F)(F)[C@H]3O)C1 [Compound 793] | < 6.00 | – | –
O=S(=O)(c1ccc(OC2CCCNC2)c2c1[C@H](O)C(F)(F)C2)C(F)(F)F (some centres unmarked) [Compound 797] | < 6.00 | – | –
